Measured values from ChEMBL document CHEMBL1201862, “PubChem BioAssay data set” (2004).
The source made the active and inactive calls.

Experiments:
[1] = biological target: T1, Heat shock factor protein 1 (Mus musculus, UniProt P38532); experiment: inhibition of MG132-induced HSE-luciferase signal, confirmation, cell-based, NIH3T3, luminescence, dose retest (AID 2382); assay type: functional;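 also: NIH3T3 fibroblasts with HSF1-driven luciferase reporter stressed by proteasome inhibitor MG132; luminescence from HSF1-driven luciferase expression after 8 hours of MG132 stress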
T1 sequence (P38532 whole entry): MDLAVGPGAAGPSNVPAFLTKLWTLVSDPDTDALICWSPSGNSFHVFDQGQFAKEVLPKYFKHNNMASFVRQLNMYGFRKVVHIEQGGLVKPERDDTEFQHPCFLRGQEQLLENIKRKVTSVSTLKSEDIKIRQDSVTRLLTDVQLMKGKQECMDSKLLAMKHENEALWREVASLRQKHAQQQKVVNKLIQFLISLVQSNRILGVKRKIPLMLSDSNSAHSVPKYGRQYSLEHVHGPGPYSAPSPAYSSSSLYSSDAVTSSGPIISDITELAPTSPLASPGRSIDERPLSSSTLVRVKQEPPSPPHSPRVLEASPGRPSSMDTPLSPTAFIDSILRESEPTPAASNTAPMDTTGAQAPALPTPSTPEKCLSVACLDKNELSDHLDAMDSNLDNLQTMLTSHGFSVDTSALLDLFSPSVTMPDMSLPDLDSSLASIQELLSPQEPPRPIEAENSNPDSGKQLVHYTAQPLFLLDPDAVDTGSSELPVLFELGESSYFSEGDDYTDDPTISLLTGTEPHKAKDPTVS

[2] = cytotoxicity in HMLE control line with eGFP shRNA, dose response, counter-screen for HMLE_sh_ECad selective toxicity project, cell-based, HMLE_sh_eGFP, luminescence (AID 463074); assay type: functional, Homo sapiens;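 also: HMLE human mammary epithelial cells expressing control shRNA against eGFP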
[3] = Luminescence Cell-Based Dose Retest to Confirm Inhibitors of Cancer Stem Cells. [Related pubchem assays (depositor defined):AID2717, AID2721]; assay type: functional; conditions: Homo sapiens
[4] = biological target: Peroxisome proliferator-activated receptor gamma/Nuclear receptor coactivator 2 (Homo sapiens, UniProt P37231); experiment: (§1) TR-FRET dose response biochemical High Throughput Screening assay for agonists of the steroid receptor coactivator 2 (SRC-2) recruitment by the peroxisome proliferator-activated receptor gamma (PPAR gamma): non-selective agonists. [Related pubchem assays: 1297, 1032 ]; assay type: functional
[5] = biological target: Peroxisome proliferator-activated receptor gamma/Nuclear receptor coactivator 3 (Homo sapiens, UniProt P37231); experiment: as §1, with “3 (SRC-3)” for “2 (SRC-2)”, “1301 (Confirmation screen.), 1048 (Primary screen.)]” for “1297, 1032 ]”; assay type: functional
Peroxisome proliferator-activated receptor gamma/Nuclear receptor coactivator 3, sequence (P37231 whole entry): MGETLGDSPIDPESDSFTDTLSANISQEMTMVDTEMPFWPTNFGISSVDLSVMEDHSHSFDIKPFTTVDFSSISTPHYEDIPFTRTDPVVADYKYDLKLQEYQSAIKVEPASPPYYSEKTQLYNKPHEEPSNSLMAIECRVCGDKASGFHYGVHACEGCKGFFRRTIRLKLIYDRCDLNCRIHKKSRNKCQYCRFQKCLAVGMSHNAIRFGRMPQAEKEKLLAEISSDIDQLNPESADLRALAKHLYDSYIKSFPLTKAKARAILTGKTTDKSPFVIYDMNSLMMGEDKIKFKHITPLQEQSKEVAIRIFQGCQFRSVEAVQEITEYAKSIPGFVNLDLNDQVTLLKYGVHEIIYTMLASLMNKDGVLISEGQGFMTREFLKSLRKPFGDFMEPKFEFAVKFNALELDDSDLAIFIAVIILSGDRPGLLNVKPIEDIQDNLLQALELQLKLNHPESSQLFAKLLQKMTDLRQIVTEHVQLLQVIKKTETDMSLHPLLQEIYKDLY
Peroxisome proliferator-activated receptor gamma/Nuclear receptor coactivator 3, sequence (Q9Y6Q9 whole entry, further chain): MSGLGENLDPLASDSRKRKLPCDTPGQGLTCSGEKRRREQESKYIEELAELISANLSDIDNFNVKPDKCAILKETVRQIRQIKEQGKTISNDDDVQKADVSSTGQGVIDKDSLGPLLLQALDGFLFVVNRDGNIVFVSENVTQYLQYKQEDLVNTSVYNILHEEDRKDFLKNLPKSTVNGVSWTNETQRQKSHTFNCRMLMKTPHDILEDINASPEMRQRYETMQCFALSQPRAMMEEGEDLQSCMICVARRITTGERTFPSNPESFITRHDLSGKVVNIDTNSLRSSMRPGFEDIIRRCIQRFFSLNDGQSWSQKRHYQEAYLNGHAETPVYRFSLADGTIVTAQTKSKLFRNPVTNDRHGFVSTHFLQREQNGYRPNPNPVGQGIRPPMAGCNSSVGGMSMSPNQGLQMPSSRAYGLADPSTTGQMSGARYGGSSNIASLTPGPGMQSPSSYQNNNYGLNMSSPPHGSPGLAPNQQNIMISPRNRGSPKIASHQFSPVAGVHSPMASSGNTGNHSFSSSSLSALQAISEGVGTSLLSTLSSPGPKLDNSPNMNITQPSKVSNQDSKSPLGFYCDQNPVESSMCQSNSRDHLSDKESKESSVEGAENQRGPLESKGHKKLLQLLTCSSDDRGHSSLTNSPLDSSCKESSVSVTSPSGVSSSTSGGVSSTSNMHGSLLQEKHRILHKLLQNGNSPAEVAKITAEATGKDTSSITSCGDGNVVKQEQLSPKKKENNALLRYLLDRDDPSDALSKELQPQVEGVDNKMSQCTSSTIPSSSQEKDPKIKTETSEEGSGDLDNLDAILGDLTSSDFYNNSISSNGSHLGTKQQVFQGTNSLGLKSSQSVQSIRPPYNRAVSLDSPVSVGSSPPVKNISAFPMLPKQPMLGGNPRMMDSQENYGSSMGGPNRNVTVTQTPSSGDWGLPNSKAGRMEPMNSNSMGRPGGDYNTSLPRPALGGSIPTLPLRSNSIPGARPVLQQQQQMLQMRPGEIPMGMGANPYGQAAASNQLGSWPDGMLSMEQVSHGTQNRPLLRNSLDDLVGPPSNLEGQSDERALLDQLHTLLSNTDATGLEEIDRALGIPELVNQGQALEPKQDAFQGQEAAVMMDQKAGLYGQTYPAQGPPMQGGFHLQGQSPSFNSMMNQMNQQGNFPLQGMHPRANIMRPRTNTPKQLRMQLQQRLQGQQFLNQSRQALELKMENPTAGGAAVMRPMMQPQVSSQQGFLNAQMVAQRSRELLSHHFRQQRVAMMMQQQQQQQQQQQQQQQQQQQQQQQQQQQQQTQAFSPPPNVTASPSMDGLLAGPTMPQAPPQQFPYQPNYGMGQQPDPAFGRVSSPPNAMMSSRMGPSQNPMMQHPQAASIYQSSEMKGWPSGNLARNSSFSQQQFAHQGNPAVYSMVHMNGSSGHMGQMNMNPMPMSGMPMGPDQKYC

[6] = biological target: Peroxisome proliferator-activated receptor gamma/Nuclear receptor coactivator 1 (Homo sapiens, UniProt P37231); experiment: as §1, with “1 (SRC-1)” for “2 (SRC-2)”, “assays (depositor defined):AID1300, AID1808, AID504735, AID631]” for “assays: 1297, 1032 ]”; assay type: protein assay
Peroxisome proliferator-activated receptor gamma/Nuclear receptor coactivator 1, sequence (P37231 whole entry): as the sequence (P37231 whole entry) above
Peroxisome proliferator-activated receptor gamma/Nuclear receptor coactivator 1, sequence (Q15788 whole entry, further chain): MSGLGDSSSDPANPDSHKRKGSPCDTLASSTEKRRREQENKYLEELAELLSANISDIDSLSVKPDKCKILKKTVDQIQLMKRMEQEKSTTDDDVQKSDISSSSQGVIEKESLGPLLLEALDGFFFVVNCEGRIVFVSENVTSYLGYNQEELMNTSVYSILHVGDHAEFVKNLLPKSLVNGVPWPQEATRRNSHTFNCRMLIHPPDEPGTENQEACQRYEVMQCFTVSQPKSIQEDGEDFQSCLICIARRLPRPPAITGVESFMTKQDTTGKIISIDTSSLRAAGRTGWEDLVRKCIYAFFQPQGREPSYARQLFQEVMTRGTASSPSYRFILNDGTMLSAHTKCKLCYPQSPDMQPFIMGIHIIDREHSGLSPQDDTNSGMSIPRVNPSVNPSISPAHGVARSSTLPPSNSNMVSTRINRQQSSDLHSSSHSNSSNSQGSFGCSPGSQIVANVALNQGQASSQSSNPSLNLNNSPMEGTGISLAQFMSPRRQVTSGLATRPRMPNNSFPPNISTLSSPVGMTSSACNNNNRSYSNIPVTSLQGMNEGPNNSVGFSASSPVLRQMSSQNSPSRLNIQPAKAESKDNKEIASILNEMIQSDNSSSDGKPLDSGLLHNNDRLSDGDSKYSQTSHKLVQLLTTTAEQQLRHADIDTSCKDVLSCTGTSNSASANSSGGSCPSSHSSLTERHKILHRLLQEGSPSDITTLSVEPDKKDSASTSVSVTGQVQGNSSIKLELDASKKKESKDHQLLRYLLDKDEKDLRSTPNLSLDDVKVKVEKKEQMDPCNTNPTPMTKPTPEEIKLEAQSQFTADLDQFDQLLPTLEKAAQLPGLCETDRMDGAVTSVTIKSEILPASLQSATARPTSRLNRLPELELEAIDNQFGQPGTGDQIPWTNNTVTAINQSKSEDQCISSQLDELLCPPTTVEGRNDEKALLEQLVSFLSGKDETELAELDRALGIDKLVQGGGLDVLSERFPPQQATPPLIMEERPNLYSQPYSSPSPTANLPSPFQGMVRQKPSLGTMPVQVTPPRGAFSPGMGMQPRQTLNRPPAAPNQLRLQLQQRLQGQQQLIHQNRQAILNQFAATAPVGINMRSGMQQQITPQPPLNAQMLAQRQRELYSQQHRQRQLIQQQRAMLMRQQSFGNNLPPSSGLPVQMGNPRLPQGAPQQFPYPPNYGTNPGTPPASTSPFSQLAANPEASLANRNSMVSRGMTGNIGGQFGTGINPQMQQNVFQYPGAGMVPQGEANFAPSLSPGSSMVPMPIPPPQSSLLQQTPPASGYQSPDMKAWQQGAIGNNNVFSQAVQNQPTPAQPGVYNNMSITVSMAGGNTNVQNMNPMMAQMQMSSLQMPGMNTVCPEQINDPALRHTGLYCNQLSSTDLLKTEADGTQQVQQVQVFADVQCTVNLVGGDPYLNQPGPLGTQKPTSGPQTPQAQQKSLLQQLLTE

HEK293 [7] = experiment: cells; conditions: Homo sapiens
HEK293 [8] = experiment: cells; conditions: Homo sapiens; remark: listed apart in the source
[9] = biological target: FAD-linked sulfhydryl oxidase ALR (Homo sapiens, UniProt P55789); experiment: inhibitors of human ALR sulfhydryl oxidase, dose response, biochemical, H2O2 detection, luminescence, cherry-pick (AID 493248)
FAD-linked sulfhydryl oxidase ALR, sequence (P55789 whole entry): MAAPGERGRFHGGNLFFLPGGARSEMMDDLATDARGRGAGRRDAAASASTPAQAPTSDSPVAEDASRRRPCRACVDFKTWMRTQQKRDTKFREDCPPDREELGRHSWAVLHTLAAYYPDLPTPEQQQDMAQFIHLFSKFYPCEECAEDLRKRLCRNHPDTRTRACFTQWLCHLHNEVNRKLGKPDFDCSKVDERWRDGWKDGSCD

[10] = biological target: Glucose-6-phosphate 1-dehydrogenase (Homo sapiens, UniProt P11413); experiment: human G6PD enzyme inhibitors, dose response, selectivity assay for P. falciparum G6PD inhibitor project, biochemical, fluorescence (AID 504792); assay type: functional
Glucose-6-phosphate 1-dehydrogenase, sequence (P11413 whole entry): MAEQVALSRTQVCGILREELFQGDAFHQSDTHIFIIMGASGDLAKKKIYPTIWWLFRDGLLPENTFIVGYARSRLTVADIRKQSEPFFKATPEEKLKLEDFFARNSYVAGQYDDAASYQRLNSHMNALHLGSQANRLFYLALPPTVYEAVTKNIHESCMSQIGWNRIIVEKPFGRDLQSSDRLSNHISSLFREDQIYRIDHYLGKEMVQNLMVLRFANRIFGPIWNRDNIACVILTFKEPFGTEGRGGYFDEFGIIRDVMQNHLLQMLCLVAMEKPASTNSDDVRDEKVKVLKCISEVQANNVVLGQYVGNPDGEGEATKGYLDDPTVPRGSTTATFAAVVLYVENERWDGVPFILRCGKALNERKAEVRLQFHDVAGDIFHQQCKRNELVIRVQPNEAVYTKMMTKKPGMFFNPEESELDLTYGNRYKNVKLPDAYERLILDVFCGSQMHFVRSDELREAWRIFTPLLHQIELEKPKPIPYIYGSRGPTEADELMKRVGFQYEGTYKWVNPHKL

[11] = Shn3 3'UTR reporter inhibitors, dose response, cell-based, Clone20 osteoblasts, firefly luciferase, cherry-picked (AID 624132); assay type: functional;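 also: firefly luciferase luminescence from reporter carrying the Shn3 3'UTR in osteoblasts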
[12] = biological target: T2, Replicative DNA helicase DnaB (Mycobacterium tuberculosis, UniProt P9WMR3); experiment: DnaB intein splicing inhibitors, dose response, biochemical, cell-free fluorescence (AID 449749); assay type: functional
T2 sequence (P9WMR3 whole entry): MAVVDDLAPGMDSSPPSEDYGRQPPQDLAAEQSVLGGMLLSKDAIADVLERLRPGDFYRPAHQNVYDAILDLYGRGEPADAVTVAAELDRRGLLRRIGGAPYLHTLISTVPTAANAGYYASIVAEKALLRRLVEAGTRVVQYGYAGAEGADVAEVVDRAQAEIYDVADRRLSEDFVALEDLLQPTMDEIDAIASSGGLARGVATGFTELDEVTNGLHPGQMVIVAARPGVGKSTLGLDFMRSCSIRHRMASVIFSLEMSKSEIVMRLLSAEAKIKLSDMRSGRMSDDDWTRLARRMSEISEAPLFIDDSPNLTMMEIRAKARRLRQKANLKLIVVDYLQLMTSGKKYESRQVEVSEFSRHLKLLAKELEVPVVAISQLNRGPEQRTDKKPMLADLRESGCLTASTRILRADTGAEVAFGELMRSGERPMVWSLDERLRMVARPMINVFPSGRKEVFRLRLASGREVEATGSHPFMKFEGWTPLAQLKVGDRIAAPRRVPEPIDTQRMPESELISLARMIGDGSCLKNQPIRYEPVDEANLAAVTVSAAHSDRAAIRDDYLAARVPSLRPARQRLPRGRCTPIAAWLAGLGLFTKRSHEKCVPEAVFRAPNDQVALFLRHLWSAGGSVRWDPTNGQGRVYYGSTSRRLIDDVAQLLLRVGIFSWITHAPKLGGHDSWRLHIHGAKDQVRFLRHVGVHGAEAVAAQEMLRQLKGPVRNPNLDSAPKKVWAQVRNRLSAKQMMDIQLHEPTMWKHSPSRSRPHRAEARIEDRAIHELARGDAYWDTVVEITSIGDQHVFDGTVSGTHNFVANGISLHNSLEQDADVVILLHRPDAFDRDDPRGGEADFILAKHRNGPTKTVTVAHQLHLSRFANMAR

Protein RecA = biological target: T3, Protein RecA (Mycobacterium tuberculosis, UniProt P9WHJ3); experiment: Fluorescence Cell-Free Homogeneous Dose Retest to Identify Inhibitors of RecA-Intein Splicing Activity. [Related pubchem assays (depositor defined):AID2097, AID2223, AID489010, AID492950]; assay type: functional
T3 sequence (P9WHJ3 whole entry): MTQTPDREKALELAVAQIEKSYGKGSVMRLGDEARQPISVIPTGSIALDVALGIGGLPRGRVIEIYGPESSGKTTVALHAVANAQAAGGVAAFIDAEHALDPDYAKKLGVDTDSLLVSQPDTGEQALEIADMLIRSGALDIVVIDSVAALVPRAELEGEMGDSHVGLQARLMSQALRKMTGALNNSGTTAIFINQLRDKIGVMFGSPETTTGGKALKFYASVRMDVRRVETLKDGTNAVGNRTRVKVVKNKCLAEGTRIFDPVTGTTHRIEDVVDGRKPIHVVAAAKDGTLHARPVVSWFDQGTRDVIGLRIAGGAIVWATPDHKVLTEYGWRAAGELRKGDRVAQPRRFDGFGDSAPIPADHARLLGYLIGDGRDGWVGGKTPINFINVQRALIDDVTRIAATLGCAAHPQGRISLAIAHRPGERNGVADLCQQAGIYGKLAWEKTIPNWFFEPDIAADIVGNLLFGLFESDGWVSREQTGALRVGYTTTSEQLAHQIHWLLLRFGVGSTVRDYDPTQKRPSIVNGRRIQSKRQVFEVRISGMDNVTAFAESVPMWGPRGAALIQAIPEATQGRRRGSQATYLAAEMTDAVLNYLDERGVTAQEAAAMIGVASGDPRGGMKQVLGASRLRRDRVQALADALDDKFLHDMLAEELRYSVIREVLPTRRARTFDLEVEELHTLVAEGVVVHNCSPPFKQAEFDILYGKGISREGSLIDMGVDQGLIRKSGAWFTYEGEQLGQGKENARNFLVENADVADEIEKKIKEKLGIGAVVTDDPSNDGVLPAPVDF

[13] = HepG2 cell cytotoxicity, dose response, cytotoxicity control for Shn3 inhibitor project, CellTiter-Glo, cherry-picked (AID 624134); assay type: functional, cell-based
[14] = control 3'UTR Renilla luciferase suppression, dose response, counter-screen for Shn3 inhibitor project, cell-based, Clone20-Shn3RL, cherry-picked (AID 624133); assay type: functional

## c1ccc2c(Nc3nc(-c4ccncc4)nc4ccccc34)cccc2c1
[1]
  EC50: > 195 µM (not active)
[2]
  AC50: 34 µM (active)
[3]
  AC50: 18.7 µM (active)

## Sc1nnc(-c2cc(-c3ccco3)[nH]n2)n1-c1ccccc1
[4]
  EC50: > 79.4 µM (not active)
[5]
  EC50: > 79.4 µM (not active)
[6]
  EC50: > 79.4 µM (inactive)

## CC(C)(C)c1ccc(Cn2nnc3c(O)nc(C4CCN(C(=O)Cc5cccs5)CC4)nc32)cc1
HEK293 [7]
  EC50: > 59.7 µM (inactive)
HEK293 [8]
  EC50: > 59.7 µM (inactive)

## NC(=O)C1=CC2C3C=CC2(O)C(=O)OC3O1 (stereo not given)
HEK293 [7]
  EC50: > 59.7 µM (inactive)
HEK293 [8]
  EC50: > 59.7 µM (inactive)

## COC(=O)c1sccc1NS(=O)(=O)c1ccc(OC)cc1
[2]
  AC50: 28.2 µM (active)
[3]
  AC50: 21.4 µM (active)

## CCSc1cnn(-c2ccccc2)c(=O)c1SCC
[4]
  EC50: 7.53 µM (active)
[5]
  EC50: > 79.4 µM (not active)
[6]
  EC50: 54.2 µM (inactive)

## COc1cc(/N=C/c2c(CO)cnc(C)c2O)cc(OC)c1OC
[9]
  AC50: 3.63 µM (active)
[10]
  IC50: > 80 µM (inactive)

## COCCNC(=S)Nc1ccc(N2CCOCC2)c(S(=O)(=O)Nc2ccc(Cl)cc2)c1
[10]
  IC50: > 80 µM (inactive)

## O=C(NCc1ccccc1)c1nc(S(=O)(=O)Cc2ccccc2)ncc1Cl
[11]
  AC50: 1.19 µM (active)
HEK293 [7]
  EC50: > 59.6 µM (inactive)
[12]
  AC50: 2.72 µM (active)
Protein RecA
  EC50: 4.88 µM (active)
[13]
  AC50: 20.4 µM (active)
[14]
  AC50: 10.8 µM (active)
HEK293 [8]
  EC50: > 2.21 µM (active)
